Source: article PMC12752627, “Discovery of a Potent and Selective TEAD Degrader with Durable Degradation Activity” (Advanced Science, 2025)

System: 867 cancer cell lines
Experiment: PRISM assay (barcoded cell line screening, 5 days);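 note: top test concentration 10 mM in eight-point dilution series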
Assay type: cell-based
Design: KG-FP-003-AUC: scale not given here
Method: The principle of the PRISM assay has been described elsewhere and was conducted as previously outlined by the PRISM team at the Broad Institute.^[ [14], [31] ^] In PRISM (MTS027) experiments, KG‐FP‐003 was tested across 867 different cancer cell lines. Cells were treated with eight concentration gradients, ranging from 4.6 nM to […], in triplicate dilutions over a period of five days. Each plate was treated with 20 µM bortezomib as a positive control and DMSO as a negative control. Three replicate experiments were performed for each compound. The resulting data were analyzed using GraphPad PRISM 9.5.

CNC(=O)c1cc2c(c(F)c1-c1c(Cl)c(F)cc3c1C[C@@](CN[C@H]1CC[C@H](C(=O)N4CCC(CC5CCN(C(=O)COc6ccc(N7CCC(=O)NC7=O)c(C)c6)CC5)CC4)CC1)(c1ccccc1)O3)[C@@H](O)[C@@H](C)C2 [KG-FP-003]
KG-FP-003-AUC (42MGBA_CENTRAL_NERVOUS_SYSTEM ACH-000323 PR500): 0.75 | KG-FP-003-AUC (639V_URINARY_TRACT ACH-000973 PR500): 0.67 | KG-FP-003-AUC (647V_URINARY_TRACT ACH-000896 PR500): 0.66 | KG-FP-003-AUC (697_HAEMATOPOIETIC_AND_LYMPHOID_TISSUE ACH-000070 PR300): 0.90 | KG-FP-003-AUC (769P_KIDNEY ACH-000411 PR500): 0.78 | KG-FP-003-AUC (786O_KIDNEY ACH-000649 PR500): 0.96 | KG-FP-003-AUC (5637_URINARY_TRACT ACH-000905 PR500): 0.63 | KG-FP-003-AUC (8305C_THYROID ACH-001306 PR500): 0.73 | KG-FP-003-AUC (8505C_THYROID ACH-001307 PR500): 0.68 | KG-FP-003-AUC (CBAGPN_BONE ACH-001022 PR300): 0.91 | KG-FP-003-AUC (CCFSTTG1_CENTRAL_NERVOUS_SYSTEM ACH-000329 PR500): 1.00 | KG-FP-003-AUC (CCK81_LARGE_INTESTINE ACH-000963 PR300): 1.00 | KG-FP-003-AUC (CCLFPEDS0003T_SOFT_TISSUE ACH-001164 PR300): 1.00 | KG-FP-003-AUC (CCLP1_BILIARY_TRACT ACH-001959 PR300): 0.63 | KG-FP-003-AUC (CCSW1_BILIARY_TRACT ACH-001960 PR300): 0.99 | KG-FP-003-AUC (CFPAC1_PANCREAS ACH-000138 PR500): 0.95 | KG-FP-003-AUC (CH157MN_CENTRAL_NERVOUS_SYSTEM ACH-000025 PR300): 0.77 | KG-FP-003-AUC (CHAGOK1_LUNG ACH-000867 PR300): 0.78 | KG-FP-003-AUC (CHL1_SKIN ACH-001024 PR500): 1.00 | KG-FP-003-AUC (CHLA06ATRT_SOFT_TISSUE ACH-001028 PR300): 0.99 | KG-FP-003-AUC (CHLA10_BONE ACH-001029 PR300): 0.99 | KG-FP-003-AUC (CHLA15_AUTONOMIC_GANGLIA ACH-001300 PR300): 0.98 | KG-FP-003-AUC (CHLA57_BONE ACH-001033 PR300): 0.75 | KG-FP-003-AUC (CHLA200_CENTRAL_NERVOUS_SYSTEM ACH-001293 PR300): 0.99 | KG-FP-003-AUC (CJM_SKIN ACH-000458 PR500): 0.54 | KG-FP-003-AUC (CL11_LARGE_INTESTINE ACH-000249 PR300): 1.00 | KG-FP-003-AUC (CL34_LARGE_INTESTINE ACH-000895 PR500): 0.99 | KG-FP-003-AUC (CMLT1_HAEMATOPOIETIC_AND_LYMPHOID_TISSUE ACH-000920 PR300): 0.82 | KG-FP-003-AUC (COGAR359_SOFT_TISSUE ACH-001289 PR300): 0.62 | KG-FP-003-AUC (COGE352_BONE ACH-001038 PR300): 0.85 | KG-FP-003-AUC (COGN278_AUTONOMIC_GANGLIA ACH-001301 PR300): 1.00 | KG-FP-003-AUC (COLO320_LARGE_INTESTINE ACH-000202 PR300): 0.97 | KG-FP-003-AUC (COLO668_LUNG ACH-000803 PR500): 1.00 | KG-FP-003-AUC (COLO679_SKIN ACH-000805 PR500): 0.97 | KG-FP-003-AUC (COLO680N_OESOPHAGUS ACH-000717 PR500): 0.91 | KG-FP-003-AUC (COLO741_SKIN ACH-000582 PR500): 1.00 | KG-FP-003-AUC (COLO783_SKIN ACH-000812 PR500): 0.85 | KG-FP-003-AUC (COLO792_SKIN ACH-000968 PR500): 0.98 | KG-FP-003-AUC (COLO800_SKIN ACH-000401 PR500): 0.99 | KG-FP-003-AUC (CORL23_LUNG ACH-000662 PR500): 0.99 | KG-FP-003-AUC (CORL88_LUNG ACH-000508 PR300): 0.94 | KG-FP-003-AUC (CORL105_LUNG ACH-000161 PR500): 0.95 | KG-FP-003-AUC (CORL279_LUNG ACH-000257 PR300): 0.80 | KG-FP-003-AUC (COV318_OVARY ACH-000256 PR300): 0.82 | KG-FP-003-AUC (COV362_OVARY ACH-000278 PR500): 0.94 | KG-FP-003-AUC (COV434_OVARY ACH-000123 PR500): 0.90 | KG-FP-003-AUC (COV644_OVARY ACH-000608 PR300): 0.68 | KG-FP-003-AUC (CW2_LARGE_INTESTINE ACH-000998 PR300): 1.00 | KG-FP-003-AUC (CW9019_SOFT_TISSUE ACH-001050 PR300): 0.68 | PRISM AUC (Cell line: A172, 5 days): 0.43 | PRISM AUC (Cell line: ES2, 5 days): 0.62 | PRISM AUC (Cell line: HOS, 5 days): 0.53
